# Laboratory results taken from patent US20100298141A1, “SUBSTITUTED PYRIDINE N-OXIDE HERBICIDES” (E. I. DU PONT DE NEMOURS AND COMPANY, priority 2007, published 2010).
# Assays:
# [1] = tested on: crabgrass; assay: Test C pre-/postemergence test; type: in vivo, Digitaria sanguinalis
# Outline: (§1)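 Compounds in a non-phytotoxic solvent with surfactant applied preemergence to seeded pots and, at the same time, postemergence to plants 2–18 cm tall (1- to 4-leaf stage). Paddy tests: pots flooded to 3 cm, compound applied into the water, depth held throughout.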
# [2] = tested on: morningglory; assay: Test A pre-/postemergence greenhouse test; type: in vivo, Ipomoea spp.; conditions: for Plant response rating, Morningglory: 0 to 100 scale where 0 is no effect and 100 is complete control; for Morningglory plant response rating: 0 to 100 scale
# Outline: (§2)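 Pots of loam–sand soil sown with the test species are sprayed preemergence on the soil surface; emerged seedlings (1–2 leaves, 2–10 cm) are sprayed postemergence at the same time. The vehicle is a non-phytotoxic solvent mixture with surfactant. Injury is scored visually after ~10 d in greenhouse.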
# [3] = tested on: lambsquarters; assay: Test C pre-/postemergence test; type: in vivo, Chenopodium album
# Outline: as §1
# [4] = tested on: Goosegrass; assay: Test C pre-/postemergence test; type: in vivo, Eleusin indica
# Outline: as §1
# [5] = tested on: cocklebur; assay: Test C pre-/postemergence test; type: in vivo, Xanthium strumarium; conditions: for Cocklebur plant response rating: preemergence, scale 0 (no effect) to 100 (complete control)
# Outline: as §1
# [6] = tested on: pigweed; assay: Test C pre-/postemergence test; type: in vivo, Amaranthus retroflexus
# Outline: as §1
# [7] = tested on: kochia; assay: Test C pre-/postemergence test; type: in vivo, Kochia scoparia
# Outline: as §1
# [8] = tested on: common (oilseed) sunflower; assay: Test C pre-/postemergence test; type: in vivo, Helianthus annuus
# Outline: as §1
# [9] = tested on: bermudagrass; assay: Test C pre-/postemergence test; type: in vivo, Cynodon dactylon
# Outline: as §1
# [10] = tested on: barnyardgrass; assay: Test C flooded paddy test; type: in vivo, Echinochloa crus-galli; conditions: Flood
# Outline: (§3)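 Test compounds are applied straight into paddy water held 3 cm above the soil surface, with that flood maintained for the whole test. After 13 to 15 days in the greenhouse, each species is scored visually relative to controls.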
# [11] = tested on: Italian ryegrass; assay: Test C pre-/postemergence test; type: in vivo, Lolium multiflorum
# Outline: as §1
# [12] = tested on: giant foxtail; assay: Test A pre-/postemergence greenhouse test; type: in vivo, Setaria faberi; conditions: for Plant response rating, Foxtail, Giant: 0 to 100 scale where 0 is no effect and 100 is complete control; for Foxtail, Giant plant response rating: 0 to 100 scale
# Outline: as §2
# [13] = tested on: Surinam grass; assay: Test C pre-/postemergence test; type: in vivo, Brachiaria decumbens
# Outline: as §1
# [14] = tested on: umbrella sedge; assay: Test C flooded paddy test; type: in vivo, Cyperus difformis; conditions: Flood
# Outline: as §3
# [15] = tested on: barnyardgrass; assay: Test A pre-/postemergence greenhouse test; type: in vivo, Echinochloa crus-galli; conditions: for Plant response rating, Barnyardgrass: 0 to 100 scale where 0 is no effect and 100 is complete control; for Barnyardgrass plant response rating: 0 to 100 scale
# Outline: as §2
# [16] = tested on: soybean; assay: Test C pre-/postemergence test; type: in vivo, Glycine max
# Outline: as §1
# [17] = tested on: crabgrass; assay: Test A pre-/postemergence greenhouse test; type: in vivo, Digitaria sanguinalis; conditions: for Plant response rating, Crabgrass, Large: 0 to 100 scale where 0 is no effect and 100 is complete control; for Crabgrass, Large plant response rating: 0 to 100 scale
# Outline: as §2
# [18] = 62 g ai/ha, Preemergence, scale 0 to 100
# [19] = 125 g ai/ha, preemergence, scale 0 (no effect) to 100 (complete control)
# [20] = Postemergence, 62 g ai/ha, scale 0 to 100, 0 no effect, 100 complete control
# [21] = Postemergence, 125 g ai/ha, scale 0 to 100, 0 no effect, 100 complete control
# [22] = Postemergence, 250 g ai/ha, scale 0 to 100, 0 no effect, 100 complete control
# [23] = Preemergence, 31 g ai/ha, scale 0 to 100 (0 no effect, 100 complete control)
# [24] = preemergence, 250 g ai/ha, scale 0 (no effect) to 100 (complete control)
# [25] = Postemergence, 500 g ai/ha, 0 is no effect, 100 is complete control
# [26] = Preemergence, 125 g ai/ha, 0 no effect, 100 complete control
# [27] = 62 g ai/ha, scale 0 to 100 (0 no effect, 100 complete control)
# [28] = 250 g ai/ha, scale 0 to 100, 0 no effect, 100 complete control, 13 to 15 days
compound,measurement,setting,value
Cn1nc(C(F)(F)F)c(C[S+]([O-])c2ccc(Cl)c[n+]2[O-])c1OCC(F)(F)F (racemic) [Compound 62],"Crabgrass, Large plant response rating",[1]; [18],80
same,"Crabgrass, Large plant response rating",[1]; [19],100
same,"Plant response rating (0 to 100), Crabgrass, Large","[1]; Postemergence, 31 g ai/ha",0
same,"Plant response rating, Crabgrass, Large",[1]; [20],0
same,"Plant response rating, Crabgrass, Large",[1]; [21],0
same,"Plant response rating, Crabgrass, Large",[1]; [22],50
same,"Plant response rating, Crabgrass, Large",[1]; [23],60
same,"Crabgrass, Large plant response rating",[1]; [24],100
same,"Plant response rating, Morningglory","[2]; Postemergence, 125 g ai/ha",90
same,Morningglory plant response rating,[2]; [25],100
same,Morningglory plant response rating,[2]; [26],90
same,"Plant response rating, Morningglory","[2]; Preemergence, 500 g ai/ha",100
same,Lambsquarters plant response rating,[3]; [18],100
same,Lambsquarters plant response rating,[3]; [19],100
same,"Plant response rating (0 to 100), Lambsquarters","[3]; Postemergence, 31 g ai/ha",0
same,"Plant response rating, Lambsquarters",[3]; [20],0
same,"Plant response rating, Lambsquarters",[3]; [21],0
same,"Plant response rating, Lambsquarters",[3]; [22],0
same,"Plant response rating, Lambsquarters",[3]; [23],100
same,Lambsquarters plant response rating,[3]; [24],100
same,Goosegrass plant response rating,[4]; [18],100
same,Goosegrass plant response rating,[4]; [19],100
same,"Plant response rating (0 to 100), Goosegrass","[4]; Postemergence, 31 g ai/ha",0
same,"Plant response rating, Goosegrass",[4]; [20],0
same,"Plant response rating, Goosegrass",[4]; [21],10
same,"Plant response rating, Goosegrass",[4]; [22],50
same,"Plant response rating, Goosegrass",[4]; [23],100
same,Goosegrass plant response rating,[4]; [24],100
same,Cocklebur plant response rating,[5]; 125 g ai/ha,30
same,"Plant response rating (0 to 100), Cocklebur","[5]; Postemergence, 31 g ai/ha",0
same,"Plant response rating, Cocklebur",[5]; [20],0
same,"Plant response rating, Cocklebur",[5]; [21],0
same,"Plant response rating, Cocklebur",[5]; [22],0
same,"Plant response rating, Cocklebur",[5]; [23],0
same,Cocklebur plant response rating,[5]; 250 g ai/ha,60
same,Pigweed plant response rating,[6]; [18],100
same,Pigweed plant response rating,[6]; [19],100
same,"Plant response rating (0 to 100), Pigweed","[6]; Postemergence, 31 g ai/ha",0
same,"Plant response rating (0 to 100), Pigweed","[6]; Postemergence, 62 g ai/ha",0
same,"Plant response rating, Pigweed",[6]; [21],0
same,"Plant response rating, Pigweed",[6]; [22],5
same,"Plant response rating, Pigweed",[6]; [23],80
same,Pigweed plant response rating,[6]; [24],100
same,Kochia plant response rating,[7]; [18],90
same,Kochia plant response rating,[7]; [19],100
same,"Plant response rating (0 to 100), Kochia","[7]; Postemergence, 31 g ai/ha",0
same,"Plant response rating, Kochia",[7]; [20],0
same,"Plant response rating, Kochia",[7]; [21],0
same,"Plant response rating, Kochia",[7]; [22],10
same,"Plant response rating, Kochia",[7]; [23],85
same,Kochia plant response rating,[7]; [24],100
same,Sunflower plant response rating,[8]; [18],75
same,Sunflower plant response rating,[8]; [19],80
same,"Plant response rating, Sunflower",[8]; [23],50
same,Sunflower plant response rating,[8]; [24],80
same,Bermudagrass plant response rating,"[9]; 62 g ai/ha, Preemergence, scale 0 to 100 (0 no effect, 100 complete control)",100
same,Bermudagrass plant response rating,[9]; [19],100
same,"Plant response rating (0 to 100), Bermudagrass","[9]; Postemergence, 31 g ai/ha",0
same,"Plant response rating, Bermudagrass",[9]; [20],0
same,"Plant response rating, Bermudagrass",[9]; [21],30
same,"Plant response rating, Bermudagrass",[9]; [22],35
same,"Plant response rating, Bermudagrass",[9]; [23],100
same,Bermudagrass plant response rating,[9]; [24],100
same,"Plant response rating, Barnyardgrass",[10]; [27],30
same,"Plant response rating, Barnyardgrass",[10]; [28],70
same,"Ryegrass, Italian plant response rating",[11]; [18],85
same,"Ryegrass, Italian plant response rating",[11]; [19],90
same,"Plant response rating (0 to 100), Ryegrass, Italian","[11]; Postemergence, 31 g ai/ha",0
same,"Plant response rating (0 to 100), Ryegrass, Italian","[11]; Postemergence, 62 g ai/ha",0
same,"Plant response rating, Ryegrass, Italian",[11]; [21],80
same,"Plant response rating, Ryegrass, Italian",[11]; [22],90
same,"Plant response rating, Ryegrass, Italian",[11]; [23],70
same,"Ryegrass, Italian plant response rating",[11]; [24],100
same,"Plant response rating, Foxtail, Giant","[12]; Postemergence, 125 g ai/ha",90
same,"Foxtail, Giant plant response rating",[12]; [25],90
same,"Foxtail, Giant plant response rating",[12]; [26],100
same,"Plant response rating, Foxtail, Giant","[12]; Preemergence, 500 g ai/ha",100
same,Surinam Grass plant response rating,[13]; [18],98
same,Surinam Grass plant response rating,[13]; [19],100
same,"Plant response rating (0 to 100), Surinam Grass","[13]; Postemergence, 31 g ai/ha",0
same,"Plant response rating (0 to 100), Surinam Grass","[13]; Postemergence, 62 g ai/ha",0
same,"Plant response rating, Surinam Grass",[13]; [21],0
same,"Plant response rating, Surinam Grass",[13]; [22],60
same,"Plant response rating, Surinam Grass",[13]; [23],80
same,Surinam Grass plant response rating,[13]; [24],100
same,"Plant response rating, Sedge, Umbrella",[14]; [27],0
same,"Plant response rating, Sedge, Umbrella",[14]; [28],100
same,"Plant response rating, Barnyardgrass","[15]; Postemergence, 125 g ai/ha",80
same,Barnyardgrass plant response rating,[15]; [25],90
same,Barnyardgrass plant response rating,[15]; [26],90
same,"Plant response rating, Barnyardgrass","[15]; Preemergence, 500 g ai/ha",100
same,Soybean plant response rating,[16]; [18],100
same,Soybean plant response rating,[16]; [19],100
same,"Plant response rating (0 to 100), Soybean","[16]; Postemergence, 31 g ai/ha",30
same,"Plant response rating (0 to 100), Soybean","[16]; Postemergence, 62 g ai/ha",50
same,"Plant response rating, Soybean",[16]; [21],60
same,"Plant response rating, Soybean",[16]; [23],70
same,"Plant response rating, Crabgrass, Large","[17]; Postemergence, 125 g ai/ha",80
same,"Crabgrass, Large plant response rating",[17]; [25],90
same,"Crabgrass, Large plant response rating",[17]; [26],100
same,"Plant response rating, Crabgrass, Large","[17]; Preemergence, 500 g ai/ha",100
